Laboratory results reported in patent US20220323406A1, “METHODS AND COMPOSITIONS FOR DIFFERENTIATING STEM CELLS” (Massachusetts Institute of Technology, priority 2019, published 2022).
Counter-ions that a name gives are not always drawn.

Key:
[1] = system: ENR+CD organoids (ISC to Paneth cell differentiation); assay: Primary screen: basal (non-stimulated) lysozyme secretion LYZ.NS, 2.5-D 384-well ENR+CD organoid differentiation; type: cell-based, mouse; conditions: primary screen; for Z.LYZ.NS: standard z score; for Dose.FC.LYZ.NS: FC vs plate median
Text: (§1) High-throughput screening.

[2] = system: ENR+CD organoids (ISC to Paneth cell differentiation); assay: Primary screen: CCh-stimulated lysozyme secretion LYZ.S, 2.5-D 384-well ENR+CD organoid differentiation; type: cell-based, mouse; conditions: primary screen, FC vs plate median
Text: as §1

[3] = system: ENR+CD organoids; assay: Primary screen: ATP (CellTiter-Glo 3D, CTG) cell number/viability, 2.5-D 384-well ENR+CD organoids; conditions: primary screen; for Z.CTG: standard z score; for Dose.FC.CTG: FC vs plate median;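 for all read-outs here: compounds given at plating and again on day 3 over a 6-day differentiation from ENR+CV stem-cell-enriched precursors, ATP measured on day 6, plate median as control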

| SMILES | Z.LYZ.NS ([1]; dose 0.08 uM) | Z.LYZ.NS ([1]; dose 0.40 uM) | Z.LYZ.NS ([1]; dose 2.00 uM) | Z.LYZ.NS ([1]; dose 10.00 uM) | Dose.FC.LYZ.NS ([1]; dose 0.08 uM) | Dose.FC.LYZ.NS ([1]; dose 0.40 uM) | Dose.FC.LYZ.NS ([1]; dose 2.00 uM) | Dose.FC.LYZ.NS ([1]; dose 10.00 uM) | Dose.FC.LYZ.S ([2]; dose 0.08 uM) | Dose.FC.LYZ.S ([2]; dose 0.40 uM) | Dose.FC.LYZ.S ([2]; dose 2.00 uM) | Dose.FC.LYZ.S ([2]; dose 10.00 uM) | Z.CTG ([3]; dose 0.08 uM) | Z.CTG ([3]; dose 0.40 uM) | Z.CTG ([3]; dose 2.00 uM) | Z.CTG ([3]; dose 10.00 uM) | Dose.FC.CTG ([3]; dose 0.08 uM) | Dose.FC.CTG ([3]; dose 0.40 uM) | Dose.FC.CTG ([3]; dose 2.00 uM) | Dose.FC.CTG ([3]; dose 10.00 uM) |
| --- | --- | --- | --- | --- | --- | --- | --- | --- | --- | --- | --- | --- | --- | --- | --- | --- | --- | --- | --- | --- |
| CCCCCCCCCCCCCCCCn1cc[n+](Cc2ccccc2)c1C.[I-] [NH125] | −0.301 | −1.634 | −1.904 | −2.293 | −0.035 log2 fold change | −0.188 log2 fold change | −0.219 log2 fold change | −0.263 log2 fold change | −0.114 log2 fold change | −0.237 log2 fold change | −0.358 log2 fold change | −0.374 log2 fold change | −0.829 | −1.213 | −2.641 | −4.268 | −0.347 log2 fold change | −0.508 log2 fold change | −1.106 log2 fold change | −1.787 log2 fold change |
| Cc1cc(OCc2nnc(SC3CCCC3)n2-c2cccnc2)ccc1-c1ccc(S(C)(=O)=O)cc1 [NMS-873] | 0.853 | −1.537 | −2.352 | −2.368 | 0.098 log2 fold change | −0.177 log2 fold change | −0.270 log2 fold change | −0.272 log2 fold change | 0.069 log2 fold change | −0.228 log2 fold change | −0.343 log2 fold change | −0.375 log2 fold change |  |  |  |  | 0.174 log2 fold change | −0.051 log2 fold change | −0.910 log2 fold change | −1.542 log2 fold change |
| CC(C)(Cc1ccc2ccccc2c1)NC[C@@H](O)COc1cccc(Cl)c1C#N [NPS-2143] | 1.413 | −0.416 | −0.674 | −0.597 | 0.162 log2 fold change | −0.048 log2 fold change | −0.077 log2 fold change | −0.069 log2 fold change | 0.147 log2 fold change | −0.062 log2 fold change | −0.161 log2 fold change | −0.116 log2 fold change | 0.356 | −0.466 | −0.587 | −0.282 | 0.149 log2 fold change | −0.195 log2 fold change | −0.246 log2 fold change | −0.118 log2 fold change |
| Cc1ccc(S(=O)(=O)c2ccc([N+](=O)[O-])o2)cc1 [NSC697923] | 0.789 | 0.441 | −0.906 | −1.338 | 0.091 log2 fold change | 0.051 log2 fold change | −0.104 log2 fold change | −0.154 log2 fold change | 0.036 log2 fold change | 0.108 log2 fold change | −0.154 log2 fold change | −0.270 log2 fold change | −0.123 | −0.033 | −0.241 | −1.867 | −0.052 log2 fold change | −0.014 log2 fold change | −0.101 log2 fold change | −0.782 log2 fold change |
| CCN(CC)CCCC(C)Nc1nc(C)cc(Nc2ccc3nc(C)cc(N)c3c2)n1 (stereo not drawn) [NSC 23766] | 0.701 | 0.380 | 0.506 | 0.080 | 0.081 log2 fold change | 0.044 log2 fold change | 0.058 log2 fold change | 0.009 log2 fold change | 0.080 log2 fold change | 0.090 log2 fold change | 0.031 log2 fold change | 0.030 log2 fold change | 0.103 | 0.406 | 0.279 | 0.774 | 0.043 log2 fold change | 0.170 log2 fold change | 0.117 log2 fold change | 0.324 log2 fold change |
| C/C(=N\NC(=S)N1CCC1)c1ccccn1 [NSC 319726] | 0.982 | −0.780 | −1.323 | −1.992 | 0.113 log2 fold change | −0.090 log2 fold change | −0.152 log2 fold change | −0.229 log2 fold change | 0.060 log2 fold change | −0.035 log2 fold change | −0.248 log2 fold change | −0.327 log2 fold change | 0.316 | −0.441 | −1.068 | −4.555 | 0.132 log2 fold change | −0.185 log2 fold change | −0.447 log2 fold change | −1.907 log2 fold change |
| CCCC(C)NC(=O)c1ccc(Cl)c(Cl)c1 (stereo not drawn) [NSC 405020] | 0.071 | −0.246 | 0.160 | −0.570 | 0.008 log2 fold change | −0.028 log2 fold change | 0.018 log2 fold change | −0.065 log2 fold change | 0.014 log2 fold change | 0.093 log2 fold change | 0.002 log2 fold change | −0.061 log2 fold change | −0.140 | −0.170 | −0.141 | −0.138 | −0.059 log2 fold change | −0.071 log2 fold change | −0.059 log2 fold change | −0.058 log2 fold change |
| O=c1cc(N2CCOCC2)oc2c1ccc1ccccc12 [NU7026] | 0.198 | 0.198 | −0.507 | −1.380 | 0.023 log2 fold change | 0.023 log2 fold change | −0.058 log2 fold change | −0.158 log2 fold change | 0.021 log2 fold change | 0.034 log2 fold change | −0.056 log2 fold change | −0.198 log2 fold change | 0.230 | 0.248 | 0.255 | −0.284 | 0.096 log2 fold change | 0.104 log2 fold change | 0.107 log2 fold change | −0.119 log2 fold change |
| Nc1ncnc2c1c(-c1cccc(OCc3ccccc3)c1)cn2C1CC(CN2CCCC2)C1 (stereo not drawn) [NVP-ADW742] | 1.239 | 1.499 | −0.823 | −1.172 | 0.142 log2 fold change | 0.172 log2 fold change | −0.095 log2 fold change | −0.135 log2 fold change | 0.245 log2 fold change | 0.265 log2 fold change | −0.166 log2 fold change | −0.210 log2 fold change | 1.622 | 1.583 | 0.614 | −1.112 | 0.679 log2 fold change | 0.663 log2 fold change | 0.257 log2 fold change | −0.465 log2 fold change |
| COc1ccccc1N1CCN(CC(O)COc2cccc3ccccc23)CC1 (stereo not drawn) [Naftopidil] | −0.325 | −0.713 | −0.171 | −0.638 | −0.037 log2 fold change | −0.082 log2 fold change | −0.020 log2 fold change | −0.073 log2 fold change | 0.015 log2 fold change | −0.128 log2 fold change | −0.097 log2 fold change | −0.079 log2 fold change |  |  |  |  | −0.039 log2 fold change | −0.161 log2 fold change | −0.179 log2 fold change | −0.132 log2 fold change |
| O=C1CC[C@@]2(O)[C@H]3Cc4ccc(O)c5c4[C@@]2(CCN3CC2CC2)[C@H]1O5 [Naltrexone HCl] | −0.067 | −0.043 | 0.166 | 0.302 | −0.008 log2 fold change | −0.005 log2 fold change | 0.019 log2 fold change | 0.035 log2 fold change | 0.002 log2 fold change | 0.025 log2 fold change | 0.025 log2 fold change | 0.045 log2 fold change |  |  |  |  | 0.089 log2 fold change | 0.070 log2 fold change | 0.004 log2 fold change |  |
